Tested on: Human prostatic cancer cell PC3
Test: In vitro cytotoxicity / biocompatibility test, MTS assay
Type: cell-based
Settings: 5 μM initial drug concentration in the media, 48 hours
Method: Human prostatic cancer cell PC3 were used to test the biocompatibility and cytotoxicity of FU loaded PCL nanofibers. Human prostatic cancer cell derived from metastatic site (bone) was purchased from ATCC, USA. 57 ml of fetal bovine serum (USA origin purchased from Sigma Aldrich), 7 ml of Penicillin-Streptomycin (Life Technologies) and 6 ml of HEPES (Life Technologies) was added to 500 ml RPMI-1640 medium (Fisher Scientific). This media is called R+ media. 96 well plate were used to grow PC3 cells (sterile and flat bottom type purchased from fisher scientific). 100 μL of PC3 cells at 8×10^4 cells/ml were added on each wells of 96 well plate for all tests. PC3 cells were incubated at 37° C. in a humidified 5% CO2 atmosphere for 24 hours before performing any test. […]
The cytotoxicity of NFs set A and D was assessed. […]
96 well plates were incubated at 37° C. in a humidified, 5% CO2 atmosphere for 48 hours to give sufficient time for the fluorouracil to inhibit essential biosynthetic process of the PC3 cells and thus cause cell death. […] Well plates were kept again in CO2 incubator for 3 hours and then their absorbance were measured at 490 nm using UV-Vis spectrometer. Absorbance of cells with different concentration of drug was compared with the absorbance of PC3 cells with no drug to determine the cell viability. […]

For `O=c1[nH]cc(F)c(=O)[nH]1` [pristine FU, 5-Fluorouracil], the alive cells was 43%.

— patent US20180000744A1, “NANOENCAPSULATED COMPOSITIONS” (Georgia Southern Research and Service Foundation, Inc., priority 2016, published 2018)
